In patent publication US12344610B2, “APOL1 inhibitors and methods of use” (Maze Therapeutics, Inc., priority 2022, dated 2025):

Key:
[1] = tested on: HEK293 cells overexpressing APOL1 G2; assay: APOL1 G2 HEK293 cell rescue assay (reversal of cell death caused by overexpression of APOL1); type: cell-based; details: geometric mean of at least 2 assay runs, † = single assay run
Protocol: Unless otherwise specified, EC50 values are reported as the geometric mean of at least 2 assay runs on separate days. Each run represents the average of a technical replicate, where each compound was assayed twice in the same plate. A superscript t symbol indicates a value from the average of a technical replicate from a single assay run, where each compound was assayed twice in the same plate. Compounds in Table 40 are referred to by the corresponding Compound Number in Table 1, which is also referred to in the synthetic examples. When one or more of the numbered compounds are identified by stereochemistry (for example, (R)- or (S)-), the specific stereoisomer for which data is provided in Table 40 may be identified by the elution order of such compound as described in the synthetic examples. Absolute stereochemistry of such compounds may be identified by methods known in the art. For Table 40 below, n/a represents “not available”.
Rescue EC50 values reported in Table 40 below represent the half-maximal effective concentration for reversal of cell death caused by overexpression of APOL1.

[2] = tested on: HEK293 clonal cell line overexpressing APOL1 G1; assay: APOL1 G1 HEK293 cell rescue assay (Example B3); type: cell-based; details: geometric mean of at least 2 runs, † = single run, ¥ = concentration at 50% rescue estimated (no sigmoidal curve)
Protocol: Compounds were also assayed in a HEK293 clonal cell line overexpressing APOL1 G1 by a method similar to that shown in Example B2 above.
Unless otherwise specified, EC50 values are reported as the geometric mean of at least 2 assay runs on separate days. Each run represents the average of a technical replicate, where each compound was assayed twice in the same plate. A superscript † symbol indicates a value from the average of a technical replicate from a single assay run, where each compound was assayed twice in the same plate. A ¥ symbol represents compound concentration at 50% rescue estimated due to lack of sigmoidal curve preventing curve fitting. Compounds in Table 41 are referred to by the corresponding Compound Number in Table 1, which is also referred to in the synthetic examples. When one or more of the numbered compounds are identified by stereochemistry (for example, (R)- or (S)-), the specific stereoisomer for which data is provided in Table 41 may be identified by the elution order of such compound as described in the synthetic examples. Absolute stereochemistry of such compounds may be identified by methods known in the art. For Table 41 below, n/a represents “not available”.
Rescue EC50 values reported in Table 41 below represent the half-maximal effective concentration for reversal of cell death caused by overexpression of APOL1.

[3] = HEK293 clonal line overexpressing APOL1 G1
[4] = Homo sapiens, HEK293, HEK293 overexpressing APOL1 G2
[5] = Homo sapiens, HEK293, HEK293 clonal line overexpressing APOL1 G1

Row | SMILES | EC50 ([1]; HEK293 overexpressing APOL1 G2) [nM] | EC50 [2, 3] [nM] | EC50 [1, 4] [nM] | EC50 [2, 5] [nM]
1 | CC(COc1ccc(S(C)(=O)=O)cc1)N1CCC2(CC1)C(=O)N(C1CC(O)C1)c1ccc(Cl)cc12 (single isomer, unassigned) [Compound 206, 5-chloro-1′-[(2S) or (2R)-1-(4-methanesulfonylphenoxy)propan-2-yl]-1-[(cis) or (trans)-3-hydroxycyclobutyl]-1,2-dihydrospiro[indole-3,4′-piperidin]-2-one] | > 9540 | 4310 | – | –
2 | CC(COc1ccc(S(C)(=O)=O)cc1)N1CCC2(CC1)C(=O)N(C1CC(O)C1)c1ccc(Cl)cc12 (single isomer, unassigned) [Compound 207, 5-chloro-1′-[(2S) or (2R)-1-(4-methanesulfonylphenoxy)propan-2-yl]-1-[(trans) or (cis)-3-hydroxycyclobutyl]-1,2-dihydrospiro[indole-3,4′-piperidin]-2-one] | > 10000 | > 10000 | – | –
3 | O=C1CCc2cc(OCCN3CCC4(CC3)C(=O)Nc3ccc(C(F)F)cc34)cnc2N1C1CC(CO)C1 (single isomer, unassigned) [Compound 310, 5-(difluoromethyl)-1′-[2-({7-oxo-8-[(trans) or (cis)-3-(hydroxymethyl)cyclobutyl]-5,6,7,8-tetrahydro-1,8-naphthyridin-3-yl}oxy)ethyl]-1,2-dihydrospiro[indole-3,4′-piperidin]-2-one] | 103 | 267 | – | –
4 | O=C1Nc2ccc(Cl)cc2C12CCN(CCOc1cnc(C(O)CO)nc1)CC2 (single isomer, unassigned) [Compound 378, 5-chloro-1′-[2-({2-[(1S or 1R)-1,2-dihydroxyethyl]pyrimidin-5-yl}oxy)ethyl]-1,2-dihydrospiro[indole-3,4′-piperidin]-2-one] | 388 | ~1000 | – | –
5 | O=C1Nc2ccc(Cl)cc2C12CCN(CCOc1cnc(C(O)CO)nc1)CC2 (single isomer, unassigned) [Compound 379, 5-chloro-1′-[2-({2-[(1R or 1S)-1,2-dihydroxyethyl]pyrimidin-5-yl}oxy)ethyl]-1,2-dihydrospiro[indole-3,4′-piperidin]-2-one] | 842 | > 10000 | – | –
6 | CC(CO)(c1ncc(OCCN2CCC3(CC2)C(=O)Nc2ccc(Cl)cc23)cc1C(F)(F)F)S(C)(=O)=O (single isomer, unassigned) [Compound 403, 5-chloro-1′-[2-({6-[(2R or 2S)-1-hydroxy-2-methanesulfonylpropan-2-yl]-5-(trifluoromethyl)pyridin-3-yl}oxy)ethyl]-1,2-dihydrospiro[indole-3,4′-piperidin]-2-one] | 95.7 | 144 | – | –
7 | CN1C(=O)C2(CCN(CCOc3ccc(C4(S(C)(=O)=O)CC(O)C4)cc3)CC2)c2cc(C(F)F)ccc21 (stereo not drawn) [Compound 277, 5-(difluoromethyl)-1′-{2-[4-(3-hydroxy-1-methanesulfonylcyclobutyl)phenoxy]ethyl}-1-methyl-1,2-dihydrospiro[indole-3,4′-piperidin]-2-one] | – | – | 34 | 117
8 | CS(=O)(=O)C1(c2ccc(OCCN3CCC4(CC3)C(=O)Nc3ccc(C(F)F)cc34)cc2)CC(O)C1 (stereo not drawn) [Compound 280, 5-(difluoromethyl)-1′-{2-[4-(3-hydroxy-1-methanesulfonylcyclobutyl)phenoxy]ethyl}-1,2-dihydrospiro[indole-3,4′-piperidin]-2-one] | – | – | 80 | 235
9 | O=C1CCc2cc(OCCN3CCC4(CC3)C(=O)Nc3ccc(Cl)cc34)cnc2N1 [Compound 293, 5-chloro-1′-{2-[(7-oxo-5,6,7,8-tetrahydro-1,8-naphthyridin-3-yl)oxy]ethyl}-1,2-dihydrospiro[indole-3,4′-piperidin]-2-one] | – | – | 294 | 193
10 | CC(O)c1ncc(OCCN2CCC3(CC2)C(=O)Nc2ccc(C(F)F)cc23)cc1C(F)(F)F (stereo not drawn) [Compound 296, 5-(difluoromethyl)-1′-(2-{[6-(1-hydroxyethyl)-5-(trifluoromethyl)pyridin-3-yl]oxy}ethyl)-1,2-dihydrospiro[indole-3,4′-piperidin]-2-one] | – | – | 77.3 | 159
11 | O=C1CCc2cc(OCCN3CCC4(CC3)C(=O)Nc3ccc(Cl)cc34)cnc2N1C1CC(O)(C2CC2)C1 (stereo not drawn) [Compound 299, 5-chloro-1′-(2-{[8-(3-cyclopropyl-3-hydroxycyclobutyl)-7-oxo-5,6,7,8-tetrahydro-1,8-naphthyridin-3-yl]oxy}ethyl)-1,2-dihydrospiro[indole-3,4′-piperidin]-2-one] | – | – | 21.3 | 63.6
12 | CCC1(O)CC(N2C(=O)CCc3cc(OCCN4CCC5(CC4)C(=O)Nc4ccc(Cl)cc45)cnc32)C1 (stereo not drawn) [Compound 318] | – | – | 23.2 | 65.9
13 | O=C1Nc2ccc(Cl)cc2C12CCN(CCOc1cnc(C(O)CO)nc1)CC2 (stereo not drawn) [Compound 330, 5-chloro-1′-(2-{[2-(1,2-dihydroxyethyl)pyrimidin-5-yl]oxy}ethyl)-1,2-dihydrospiro[indole-3,4′-piperidin]-2-one] | – | – | 668 | ~1500
14 | N#Cc1ccc2c(c1)C1(CCN(CCOc3cnc(CCO)nc3)CC1)C(=O)N2 [Compound 332, 1′-(2-{[2-(2-hydroxyethyl)pyrimidin-5-yl]oxy}ethyl)-2-oxo-1,2-dihydrospiro[indole-3,4′-piperidine]-5-carbonitrile] | – | – | – | ~10000
15 | CC(O)c1ncc(OCCN2CCC3(CC2)C(=O)Nc2ccc(C#N)cc23)cc1C(F)(F)F (stereo not drawn) [Compound 338, 1′-(2-{[6-(1-hydroxyethyl)-5-(trifluoromethyl)pyridin-3-yl]oxy}ethyl)-2-oxo-1,2-dihydrospiro[indole-3,4′-piperidine]-5-carbonitrile] | – | – | 99.4 | 213
16 | C[C@]1(O)C[C@@H](n2c(=O)cc(C(F)F)c3cc(OCCN4CCC5(CC4)C(=O)Nc4ccc(Cl)cc45)cnc32)C1 [Compound 339, 5-chloro-1′-(2-{[5-(difluoromethyl)-7-oxo-8-[(cis)-3-hydroxy-3-methylcyclobutyl]-7,8-dihydro-1,8-naphthyridin-3-yl]oxy}ethyl)-1,2-dihydrospiro[indole-3,4′-piperidin]-2-one] | – | – | 36.6 | –
17 | C[C@]1(O)C[C@@H](n2c(=O)cc(C(F)F)c3cc(OCCN4CCC5(CC4)C(=O)Nc4ccc(C(F)F)cc45)cnc32)C1 [Compound 340, 5-(difluoromethyl)-1′-(2-{[5-(difluoromethyl)-7-oxo-8-[(cis)-3-hydroxy-3-methylcyclobutyl]-7,8-dihydro-1,8-naphthyridin-3-yl]oxy}ethyl)-1,2-dihydrospiro[indole-3,4′-piperidin]-2-one] | – | – | 30.2 | –
18 | CP(C)(=O)C1(c2ncc(OCCN3CCC4(CC3)C(=O)Nc3ccc(Cl)cc34)cn2)CC1 [Compound 344, 5-chloro-1′-[2-({2-[1-(dimethylphosphoryl)cyclopropyl]pyrimidin-5-yl}oxy)ethyl]-1,2-dihydrospiro[indole-3,4′-piperidin]-2-one] | – | – | 194 | 254
19 | C[C@]1(O)C[C@@H](n2cnc3cc(OCCN4CCC5(CC4)C(=O)Nc4ccc(Cl)cc45)ccc32)C1 [Compound 351, 5-chloro-1′-[2-({1-[(cis)-3-hydroxy-3-methylcyclobutyl]-1H-1,3-benzodiazol-5-yl}oxy)ethyl]-1,2-dihydrospiro[indole-3,4′-piperidin]-2-one] | – | – | 166 | 299
20 | C[C@]1(O)C[C@@H](N2C(=O)CCc3cc(OCCN4CCC5(CC4)C(=O)Nc4ccc(Cl)cc45)cc(C(F)(F)F)c32)C1 [Compound 353, 5-chloro-1′-[2-({2-oxo-1-[(cis)-3-hydroxy-3-methylcyclobutyl]-8-(trifluoromethyl)-1,2,3,4-tetrahydroquinolin-6-yl}oxy)ethyl]-1,2-dihydrospiro[indole-3,4′-piperidin]-2-one] | – | – | 12.3 | 34.5
21 | C[C@]1(O)C[C@@H](N2C(=O)CCc3cc(OCCN4CCC5(CC4)C(=O)Nc4ccc(C#N)cc45)cc(C(F)(F)F)c32)C1 [Compound 354, 2-oxo-1′-[2-({2-oxo-1-[(cis)-3-hydroxy-3-methylcyclobutyl]-8-(trifluoromethyl)-1,2,3,4-tetrahydroquinolin-6-yl}oxy)ethyl]-1,2-dihydrospiro[indole-3,4′-piperidine]-5-carbonitrile] | – | – | 14.6 | 40.1
